Source: patent US11685732B2, “MYST family histone acetyltransferase inhibitors” (Epizyme, Inc., priority 2017, dated 2023)
Like-named read-outs stand apart in the source and are kept apart here.

Experiments:
[1] = target: KAT-7 (Homo sapiens (Human), UniProt O95251); assay: KAT-7 biochemical inhibition assay (SAMDI mass spectrometry)
Procedure, shortened: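 Read-out was SAMDI time-of-flight MS of formic acid-quenched reactions (0.5% final). Compound dilutions (2% DMSO final) were pre-incubated with 6 nM KAT-7 in 50 mM Tris pH 8.0 with 1 mM DTT, then given 1 μM peptide substrate and 2 μM acetyl-CoA for 120 min at 25 °C. IC50 values were derived.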

[2] = target: KAT-6A (Homo sapiens (Human), UniProt Q92794); assay: KAT-6A biochemical inhibition assay (SAMDI mass spectrometry)
KAT-6A, sequence (Q92794 other isoform, or with tags, fused parts or gaps): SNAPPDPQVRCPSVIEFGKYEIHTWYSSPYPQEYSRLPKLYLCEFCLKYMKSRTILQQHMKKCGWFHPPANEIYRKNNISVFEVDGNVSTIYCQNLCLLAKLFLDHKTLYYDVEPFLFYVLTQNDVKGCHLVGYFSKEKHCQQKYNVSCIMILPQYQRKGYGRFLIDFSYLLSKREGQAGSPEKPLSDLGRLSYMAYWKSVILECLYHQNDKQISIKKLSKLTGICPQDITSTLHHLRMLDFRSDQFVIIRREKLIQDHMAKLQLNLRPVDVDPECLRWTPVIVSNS
Procedure, shortened: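 IC50 values came from SAMDI time-of-flight mass spectrometry after formic acid quench (0.5% final). Acetylation ran 90 min at 25 °C with 1 μM acetyl coenzyme A and 1 μM peptide substrate, following compound pre-incubation with 12.5 nM KAT-6A in Tris buffer pH 8.0 containing DTT, 2% DMSO final.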

[3] = target: KAT-8 (Homo sapiens (Human), UniProt Q9H7Z6); assay: KAT-8 biochemical inhibition assay (SAMDI mass spectrometry)
KAT-8, sequence (Q9H7Z6 other isoform, or with tags, fused parts or gaps): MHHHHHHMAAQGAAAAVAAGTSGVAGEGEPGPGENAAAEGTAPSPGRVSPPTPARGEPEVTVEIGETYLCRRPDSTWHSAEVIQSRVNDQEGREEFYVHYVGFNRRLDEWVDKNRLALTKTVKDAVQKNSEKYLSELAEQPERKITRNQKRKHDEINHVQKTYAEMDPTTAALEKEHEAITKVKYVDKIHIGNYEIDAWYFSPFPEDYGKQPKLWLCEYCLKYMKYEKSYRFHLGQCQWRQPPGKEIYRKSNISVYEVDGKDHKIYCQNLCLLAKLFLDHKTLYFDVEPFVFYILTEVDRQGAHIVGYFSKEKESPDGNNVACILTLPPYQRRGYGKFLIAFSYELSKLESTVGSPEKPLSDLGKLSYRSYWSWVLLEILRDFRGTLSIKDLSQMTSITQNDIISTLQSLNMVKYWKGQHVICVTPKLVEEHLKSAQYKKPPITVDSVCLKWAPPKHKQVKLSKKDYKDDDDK
Procedure, shortened: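 Acetylation of 1 μM peptide substrate with 5 μM acetyl-CoA by 12.5 nM enzyme, compound pre-incubated, 2% DMSO, Tris pH 8.0 buffer with DTT, 25 °C for 90 min. Quench with 0.5% formic acid; product read by SAMDI mass spectrometry to give IC50.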

[4] = target: KAT-5 (Homo sapiens (Human), UniProt Q92993); assay: KAT-5 biochemical inhibition assay (SAMDI mass spectrometry)
KAT-5, sequence (Q92993 other isoform, or with tags, fused parts or gaps): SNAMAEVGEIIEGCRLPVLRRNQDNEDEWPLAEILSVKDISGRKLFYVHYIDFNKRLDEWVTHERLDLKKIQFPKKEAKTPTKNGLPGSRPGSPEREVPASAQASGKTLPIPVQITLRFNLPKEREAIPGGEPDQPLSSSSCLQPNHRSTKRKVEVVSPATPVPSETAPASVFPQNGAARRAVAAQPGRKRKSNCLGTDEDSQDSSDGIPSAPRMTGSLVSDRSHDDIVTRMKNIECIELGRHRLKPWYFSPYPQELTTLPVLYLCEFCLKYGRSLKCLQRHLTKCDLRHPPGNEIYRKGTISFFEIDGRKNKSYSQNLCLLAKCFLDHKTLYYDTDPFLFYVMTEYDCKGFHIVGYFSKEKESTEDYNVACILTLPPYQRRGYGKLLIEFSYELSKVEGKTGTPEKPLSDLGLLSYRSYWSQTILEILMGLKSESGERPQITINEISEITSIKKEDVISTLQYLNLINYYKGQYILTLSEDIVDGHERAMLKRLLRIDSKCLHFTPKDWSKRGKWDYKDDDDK
Procedure, shortened: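 Acetylation of 1 μM peptide by 9 nM enzyme with 0.5 μM acetyl-CoA (final) was run 90 min at 25° C in Tris pH 8.0 buffer with DTT, after compound preincubation at 2% DMSO. Formic acid stopped the reaction, and product was quantified by SAMDI mass spectrometry to derive IC50.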

KAT-7, sequence (O95251 other isoform, or with tags, fused parts or gaps): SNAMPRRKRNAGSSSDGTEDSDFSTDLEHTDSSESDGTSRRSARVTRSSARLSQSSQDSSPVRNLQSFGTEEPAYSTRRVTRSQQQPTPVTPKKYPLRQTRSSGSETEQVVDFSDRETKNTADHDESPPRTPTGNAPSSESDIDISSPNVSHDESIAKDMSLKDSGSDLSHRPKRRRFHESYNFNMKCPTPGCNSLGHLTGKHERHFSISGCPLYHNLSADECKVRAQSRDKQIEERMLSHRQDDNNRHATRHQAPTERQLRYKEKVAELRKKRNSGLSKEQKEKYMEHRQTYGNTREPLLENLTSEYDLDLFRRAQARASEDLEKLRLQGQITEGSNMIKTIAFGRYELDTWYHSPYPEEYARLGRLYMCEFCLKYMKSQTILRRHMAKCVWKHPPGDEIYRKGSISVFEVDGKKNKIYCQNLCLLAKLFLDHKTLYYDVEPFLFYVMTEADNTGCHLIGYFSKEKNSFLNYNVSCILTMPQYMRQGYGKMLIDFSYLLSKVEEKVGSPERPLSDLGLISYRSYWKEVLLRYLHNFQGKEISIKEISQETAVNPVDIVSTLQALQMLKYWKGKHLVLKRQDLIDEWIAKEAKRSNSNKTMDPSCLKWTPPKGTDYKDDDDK

Row | Structure (SMILES) | IC50 ([1]; Table 6, comparative compounds) [µM] | IC50 ([2]; Table 6, comparative compounds) [µM] | IC50 ([3]; Table 6, comparative compounds) [µM] | IC50 ([4]; Table 6, comparative compounds) [µM] | IC50 [1] [µM] | IC50 [2] [µM] | IC50 [3] [µM] | IC50 [4] [µM]
1 | Cc1cc(-c2ccccc2)cc(C(=O)NNS(=O)(=O)CC2CCCNC2)c1F (stereo not drawn) [D, reference compound] | > 100 | > 100 | > 100 | 10 to 50 |  |  |  | 
2 | Cn1cnc(-c2cc(Cl)c(F)c(C(=O)NNS(=O)(=O)CC3CCCC(S(=O)(=O)C4CCC4)C3)c2)c1 (stereo not drawn) [Compound I-91] |  |  |  |  | < 10 | < 10 | 10 to 50 | < 10
3 | CCNC(=O)N[C@H]1C[C@@H](CS(=O)(=O)NNC(=O)c2cc(-c3cn(C)cn3)cc(Cl)c2F)C1 [Compound I-107] |  |  |  |  | < 10 | < 10 | 10 to 50 | < 10
4 | Cn1cnc(-c2cc(Cl)c(F)c(C(=O)NNS(=O)(=O)c3cnn(C)n3)c2)c1 [Compound I-72] |  |  |  |  | < 10 | < 10 | 10 to 50 | 10 to 50
5 | Cn1cnc(-c2cc(Cl)c(F)c(C(=O)NNS(=O)(=O)CC3CCCC(NC(=O)OC(C)(C)C)C3)c2)c1 (stereo not drawn) [Compound I-102] |  |  |  |  | < 10 | < 10 | 10 to 50 | < 10
6 | CC(=O)N1CCCC(CS(=O)(=O)NNC(=O)c2cc(-c3cn(C)cn3)cc(C)c2F)C1 (stereo not drawn) [Compound I-142] |  |  |  |  | < 10 | < 10 | > 100 | < 10
7 | CC(=O)N[C@H]1CC[C@@H](CS(=O)(=O)NNC(=O)c2cc(-c3cn(C)cn3)cc(Cl)c2F)CC1 [Compound I-184] |  |  |  |  | < 10 | < 10 | 10 to 50 | < 10
8 | CC(C)C(=O)N[C@H]1CC[C@@H](CS(=O)(=O)NNC(=O)c2cc(-c3cn(C)cn3)cc(Cl)c2F)CC1 [Compound I-222] |  |  |  |  | < 10 | 10 to 50 | 10 to 50 | < 10
9 | Cn1cnc(-c2cc(Cl)c(F)c(C(=O)NNS(=O)(=O)C[C@H]3CCCO3)c2)c1 [Compound I-388] |  |  |  |  | < 10 | < 10 | > 100 | < 10
10 | Cn1cnc(-c2cc(Cl)c(F)c(C(=O)NNS(=O)(=O)c3cn(C)nn3)c2)c1 [Compound I-69] |  |  |  |  | < 10 | 10 to 50 | 10 to 50 | 10 to 50
11 | CNC(=S)N1CC[C@@H](CS(=O)(=O)NNC(=O)c2cc(-c3cn(C)cn3)cc(Cl)c2F)C1 [Compound I-183] |  |  |  |  | < 10 | < 10 | 10 to 50 | < 10
12 | Cn1cnc(-c2cc(Cl)c(F)c(C(=O)NNS(=O)(=O)CC3CCCN(C(=O)NCCO)C3)c2)c1 (stereo not drawn) [Compound I-225] |  |  |  |  | < 10 | < 10 | 10 to 50 | < 10
13 | CCNC(=O)N(C)[C@H]1CC[C@H](CS(=O)(=O)NNC(=O)c2cc(-c3cn(C)cn3)cc(Cl)c2F)CC1 [Compound I-338] |  |  |  |  | < 10 | < 10 | 10 to 50 | < 10
14 | CN(C(=O)OC(C)(C)C)c1cccc(S(=O)(=O)NNC(=O)c2cc(-c3cn(C)cn3)cc(Cl)c2F)c1 [Compound I-343] |  |  |  |  | < 10 | < 10 | 10 to 50 | < 10
15 | CC(=O)Nc1ccccc1S(=O)(=O)NNC(=O)c1cc(-c2cn(C)cn2)cc(Cl)c1F [Compound I-370] |  |  |  |  | < 10 | < 10 | 10 to 50 | 10 to 50
16 | CC(C)NC(=O)N1CC(CS(=O)(=O)NNC(=O)c2cc(-c3cn(C)cn3)cc(Cl)c2F)C1 [Compound I-204] |  |  |  |  | < 10 | 10 to 50 | 10 to 50 | 10 to 50
17 | CC(C)NC(=O)N1CCCC(CS(=O)(=O)NNC(=O)c2cc(-c3cn(C)cn3)cc(Cl)c2F)C1 (stereo not drawn) [Compound I-187] |  |  |  |  | < 10 | < 10 | 10 to 50 | < 10
18 | Cn1cnc(-c2cc(Cl)c(F)c(C(=O)NNS(=O)(=O)c3cn(C)cn3)c2)c1 [Compound I-237] |  |  |  |  | < 10 | < 10 | 10 to 50 | 10 to 50
19 | Cn1cnc(-c2cc(Cl)c(F)c(C(=O)NNS(=O)(=O)C[C@H]3CCC[C@H](NC(=O)OC(C)(C)C)C3)c2)c1 [Compound I-350] |  |  |  |  | < 10 | < 10 | 10 to 50 | < 10
20 | COc1ccc(CN(C)C(=O)N2CCCC(CS(=O)(=O)NNC(=O)c3cc(-c4cn(C)cn4)cc(Cl)c3F)C2)cc1 (stereo not drawn) [Compound I-171] |  |  |  |  | < 10 | < 10 | 10 to 50 | < 10
21 | Cn1cnc(-c2cc(Cl)c(F)c(C(=O)NNS(=O)(=O)CC3CCCC(N)C3)c2)c1 (stereo not drawn) [Compound I-103] |  |  |  |  | < 10 | 10 to 50 | 10 to 50 | 10 to 50

Row | Structure (SMILES) | IC50 ([1]; Table 6, comparative compounds) [µM] | IC50 ([2]; Table 6, comparative compounds) [µM] | IC50 ([3]; Table 6, comparative compounds) [µM] | IC50 ([4]; Table 6, comparative compounds) [µM] | IC50 [1] [µM] | IC50 [2] [µM] | IC50 [3] [µM] | IC50 [4] [µM]
22 | CCC(=O)N[C@H]1CC[C@@H](CS(=O)(=O)NNC(=O)c2cc(-c3cn(C)cn3)cc(Cl)c2F)CC1 [Compound I-221] |  |  |  |  | < 10 | < 10 | 10 to 50 | < 10
23 | CN1CCN([C@H]2C[C@H](CS(=O)(=O)NNC(=O)c3cc(-c4cn(C)cn4)cc(Cl)c3F)C2)C1=O [Compound I-312] |  |  |  |  | < 10 | < 10 | 10 to 50 | < 10
24 | Cc1nc(-c2cc(Cl)c(F)c(C(=O)NNS(=O)(=O)CC3CCOCC3)c2)co1 [Compound I-80] |  |  |  |  | 10 to 50 | < 10 | 10 to 50 | 10 to 50
25 | CCNC(=O)N[C@H]1CCC[C@H](CS(=O)(=O)NNC(=O)c2cc(-c3cn(C)cn3)cc(Cl)c2F)C1 [Compound I-348] |  |  |  |  | < 10 | < 10 | 10 to 50 | < 10
26 | Cc1ncc(-c2cc(Cl)c(F)c(C(=O)NNS(=O)(=O)C3CCOCC3)c2)n1C [Compound I-54] |  |  |  |  | > 100 | > 100 | > 100 | 50 to 100
27 | COCCn1nc(-c2cc(Cl)c(F)c(C(=O)NNS(=O)(=O)CC3CCCCC3)c2)cc1C [Compound I-233] |  |  |  |  | < 10 | 10 to 50 | 10 to 50 | 10 to 50
28 | Cn1cnc(-c2cc(Cl)c(F)c(C(=O)NNS(=O)(=O)C3CCOC3)c2)c1 (stereo not drawn) [Compound I-27] |  |  |  |  | < 10 | 50 to 100 | > 100 | 10 to 50
29 | CCn1cnc(C)c1-c1cc(Cl)c(F)c(C(=O)NNS(=O)(=O)CC2CCCCC2)c1 [Compound I-40] |  |  |  |  | > 100 | > 100 | > 100 | > 100
30 | Cc1cn(-c2cc(Cl)c(F)c(C(=O)NNS(=O)(=O)CC3CCOCC3)c2)cn1 [Compound I-49] |  |  |  |  | > 100 | > 100 | > 100 | > 100
31 | CCn1cc(-c2cc(Cl)c(F)c(C(=O)NNS(=O)(=O)C3CCCCC3)c2)nc1C [Compound I-46] |  |  |  |  | < 10 | 50 to 100 | > 100 | 10 to 50
32 | COCCN(Cc1ccc(OC)cc1)C(=O)N1CCCC(CS(=O)(=O)NNC(=O)c2cc(-c3cn(C)cn3)cc(Cl)c2F)C1 (stereo not drawn) [Compound I-216] |  |  |  |  | < 10 | 10 to 50 | 10 to 50 | < 10
33 | Cn1cnc(-c2cc(Cl)c(F)c(C(=O)NNS(=O)(=O)CC3CCN(C(=O)NCCO)C3)c2)c1 (stereo not drawn) [Compound I-228] |  |  |  |  | < 10 | 10 to 50 | 10 to 50 | < 10
34 | Cc1cc(-c2cn(CCO)cn2)cc(C(=O)NNS(=O)(=O)CC2CCOCC2)c1F [Compound I-146] |  |  |  |  | 10 to 50 | 10 to 50 | > 100 | 10 to 50
35 | COCC(=O)N1CCCC(CS(=O)(=O)NNC(=O)c2cc(-c3cn(C)cn3)cc(Cl)c2F)C1 (stereo not drawn) [Compound I-35] |  |  |  |  | < 10 | < 10 | 10 to 50 | < 10
36 | CCn1cc(S(=O)(=O)NNC(=O)c2cc(-c3cn(C)cn3)cc(Cl)c2F)cn1 [Compound I-52] |  |  |  |  | < 10 | 10 to 50 | > 100 | 10 to 50
37 | Cn1cnc(-c2cc(Cl)c(F)c(C(=O)NNS(=O)(=O)CC3CCC4CCC3N4)c2)c1 (stereo not drawn) [Compound I-251] |  |  |  |  | < 10 | 10 to 50 | 10 to 50 | 10 to 50
38 | COCC(=O)N1CCC(CS(=O)(=O)NNC(=O)c2cc(-c3cn(C)cn3)cc(Cl)c2F)C1 (stereo not drawn) [Compound I-62] |  |  |  |  | < 10 | 10 to 50 | 10 to 50 | 10 to 50
39 | Cn1cnc(-c2cc(Cl)c(F)c(C(=O)NNS(=O)(=O)CC3(C)CCOCC3)c2)c1 [Compound I-239] |  |  |  |  | < 10 | 10 to 50 | 10 to 50 | < 10
40 | CN(C)C(=O)N1CC(CS(=O)(=O)NNC(=O)c2cc(-c3cn(C)cn3)cc(Cl)c2F)C1 [Compound I-167] |  |  |  |  | < 10 | < 10 | 10 to 50 | 10 to 50
41 | CCn1cc(-c2cc(C)c(F)c(C(=O)NNS(=O)(=O)C3CCCCC3)c2)cn1 [Compound I-154] |  |  |  |  | < 10 | > 100 | > 100 | 10 to 50
42 | COc1cccc(S(=O)(=O)NNC(=O)c2cc(-c3cn(C)cn3)cc(Cl)c2F)c1 [Compound I-322] |  |  |  |  | < 10 | < 10 | 10 to 50 | < 10
